# According to patent publication US5753679A, “Benzyl-piperidine derivatives” (priority 1995, dated 1998):
# Target: T1, dopamine D4 receptor (Homo sapiens, UniProt P21917)
# T1 construct: expressed in transfected cells; host or cells: CHO (Chinese Hamster Ovary) cells, D4-CHO, crude membranes
# T1 sequence (P21917 1-419): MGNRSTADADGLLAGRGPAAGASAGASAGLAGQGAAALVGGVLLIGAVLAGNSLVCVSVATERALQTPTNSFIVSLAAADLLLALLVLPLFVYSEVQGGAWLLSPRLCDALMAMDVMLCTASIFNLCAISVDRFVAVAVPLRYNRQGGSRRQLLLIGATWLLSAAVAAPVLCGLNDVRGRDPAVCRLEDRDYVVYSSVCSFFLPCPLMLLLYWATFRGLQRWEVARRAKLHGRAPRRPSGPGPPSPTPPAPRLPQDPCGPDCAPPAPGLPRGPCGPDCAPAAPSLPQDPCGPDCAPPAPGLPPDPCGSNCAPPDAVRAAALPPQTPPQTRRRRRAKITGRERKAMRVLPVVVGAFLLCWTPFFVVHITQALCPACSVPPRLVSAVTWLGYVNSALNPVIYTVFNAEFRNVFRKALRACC
# Assay: Binding to the D4 receptor, [3H]-spiperone displacement, D4-CHO membranes
# Conditions: not given
# Description: The compounds were characterized by a comparison in binding behaviour to the D4 receptor and to the D2 receptor. CHO cells (Chinese Hamster Ovary) were used in the test. Crude membranes were isolated from D4 --CHO and D2 --CHO cells by ultracentrifugation and were stored at -80° C. After thawing and homogenization in a buffer solution (50 mM Tris, 1 mM EDTA, 5 mM KCI, 1.5 mM CaCI2, 4 mM MgCI2, pH 7.4) they were incubated at room temperature for 90 minutes with 200 pM [^3 H]-spiperone and increasing concentrations (1×10^-11 M to 1×10^-4 M) of the test compound. A non-specific binding by the incubation was established in the presence of 1×10^-5 M (+)-butaclamol.
# The unbound radioligand was removed by filtration through a GFIC glass filter and the bound radioactivity was determined by flash emission in a Packard Top Count.
# It was determined using ^3 H-spiperone. The calculation of the value was effected with a ligand.
row,SMILES,Ki
1,"Nc1ccccc1C(=O)OC1CCN(Cc2ccccc2)CC1 [A/5a, 1-Benzyl-piperidin-4-yl 2-amino-benzoate]",4 nM

# Same assay, conditions: [3H]-spiperone 200 pM, D4-CHO crude membranes, room temperature, 90 minutes, pH 7.4; read-out: Ki at D4
row,SMILES,Ki
1,"Cc1ccc(C(=O)OC2CCN(Cc3ccccc3)CC2)c(C)c1 [N/46a, 1-benzyl-piperidin-4-yl 2,4-dimethyl-benzoate]",9 nM
2,"Cc1ccc(C(=O)OC2CCN(Cc3ccccc3N)CC2)cc1 [R/69a, 1-(2-Amino-benzyl)-piperidin-4-yl 4-methyl-benzoate]",17.5 nM
3,"O=C(OC1CCN(Cc2cccc([N+](=O)[O-])c2)CC1)c1ccccc1 [M/70b, 1-(3-Nitro-benzyl)-piperidin-4-yl benzoate]",13 nM
4,"COc1ccc(CN2CCC(OC(=O)c3ccccc3)CC2)cc1 [S/80c, 1-(4-Methoxy-benzyl)-piperidin-4-yl benzoate]",15 nM
5,"O=C(OC1CCN(Cc2ccccc2)CC1)c1ccc(I)cc1 [D/22a, 1-Benzyl-piperidin-4-yl 4-iodo-benzoate]",15 nM
6,"O=C(OC1CCN(Cc2ccc(F)cc2)CC1)c1ccccc1 [O/64b, 1-(4-Fluoro-benzyl)-piperidin-4-yl benzoate]",18 nM
7,"CNc1ccc(C(=O)OC2CCN(Cc3ccccc3)CC2)cc1 [G/32b, 1-Benzyl-piperidin-4-yl 4-methylamino-benzoate]",5 nM
8,"Cc1ccc(C(=O)OC2CCN(Cc3ccc(Cl)cc3)CC2)cc1 [I/59a, 1-(4-Chloro-benzyl)-piperidin-4-yl 4-methyl-benzoate]",15 nM
9,"O=C(OC1CCN(Cc2ccccc2)CC1)c1ccc(Br)cc1 [C/19b, 1-Benzyl-piperidin-4-yl 4-bromo-benzoate]",10 nM
10,"Cc1ccccc1C(=O)OC1CCN(Cc2ccccc2)CC1 [E/24a, 1-Benzyl-piperidin-4-yl 2-methyl-benzoate]",6 nM
11,"Cc1ccc(C(=O)OC2CCN(Cc3cccc([N+](=O)[O-])c3)CC2)cc1 [P/71a, 1-(3-Nitro-benzyl)-piperidin-4-yl 4-methyl-benzoate]",19 nM
12,"O=C(OC1CCN(Cc2ccc(Cl)cc2)CC1)c1ccccc1 [H/58c, 1-(4-Chloro-benzyl)-piperidin-4-yl benzoate]",7.3 nM
13,"Cc1ccc(C(=O)OC2CCN(Cc3ccccc3)CC2)cc1 [F/25a, 1-Benzyl-piperidin-4-yl 4-methyl-benzoate]",8 nM
14,"Nc1ccc(C(=O)OC2CCN(Cc3ccccc3)CC2)nc1 [B/8b, 1-benzyl-piperidin-4-yl 5-amino-picolinate]",16.4 nM
15,"Cc1ccc(CN2CCC(OC(=O)c3ccc(C)cc3)CC2)cc1 [L/79a, 1-(4-Methyl-benzyl)-piperidin-4-yl 4-methyl-benzoate]",5.2 nM
16,"O=C(OC1CCN(Cc2ccc(Cl)cc2)CC1)c1ccc(Cl)cc1 [J/82a, 1-(4-Chloro-benzyl)-piperidin-4-yl 4-chloro-benzoate]",18 nM
17,"Cc1ccc(C(=O)OC2CCN(Cc3cccc(N)c3)CC2)cc1 [Q/73a, 1-(3-Amino-benzyl)-piperidin-4-yl 4-methyl-benzoate]",19 nM
18,"Cc1ccc(CN2CCC(OC(=O)c3ccccc3)CC2)cc1 [k/78b, 1-(4-Methyl-benzyl)-piperidin-4-yl benzoate]",3.8 nM
